Measured values published in US20250020635A1, “ASSAY METHODS AND USES THEREOF FOR SCREENING ALZHEIMER'S DISEASE TREATMENT COMPOUNDS” (priority 2023, published 2025).
Entries after “also recorded” stand apart in the source; their conditions may differ. Like-named read-outs stand apart in the source and are kept apart here.

Tests used:
HMC3 cells = assay: Microglial phagocytosis/cell health high-content assay, HMC3 cells; format: cell-based; details: for EC50: read-out: stimulation of phagocytosis EC50; for Ave. % Cell Count @ 60 uM HMC3 cells / Ave. % Phagocytosis @ 60 uM HMC3 cells: 48 hrs, compared to control; for IC50: read-out: inhibition of phagocytosis IC50
Description: (§1) The assay introduced here is a simplified cellular imaging assay without any fixation and washing steps, while producing multiparameter measurements with high capacity using a 384-well plate format. The assay procedures include plating cells on day 1, incubating cell plates overnight before treating cells on day 2, adding pHrodo™-myelin/membrane debris to cell plates on day 3, and 20 hr later, staining cell nuclei with Hoechst-33342 for 30 min before performing high-content imaging on day 4. Three selected parameters are measured from cells: 1) mean total fluorescence intensity per cell of pHrodo™-myelin/membrane debris in phagocytosis vesicles to quantify phagocytosis; 2) cell counts per well to quantify treatment effects on proliferation and cell death; and 3) average nuclear intensity to quantify treatment-induced nuclear changes such as in apoptosis. The assay has been used on HMC3 cells (an immortalized human microglial cell line), BV2 cells (an immortalized mouse microglial cell line), and primary microglia isolated from mouse brains. For initial assay attempts, we recommend using HMC3 cells available from the ATCC.
(§2) All collected raw data are normalized to the untreated control with following formula: % of control=100×(X−Min)/(Max−Min). Factors in the formula are: X is raw data from a treated well, Max is an average measurement from pHrodo™-myelin seeded but untreated wells, and Min is an average measurement from no pHrodo™-myelin untreated wells. Normalized data are used for curve fitting that is done with the variable slope (four parameters) using the Prism software.
(§3) To ensure that the measurements reflect the steady state of compound treatment effects and cell health, the assay was set with a total compound treatment time of 48 hr, including pHrodo™-myelin/membrane debris seeding performed 20-24 hr after compound addition. […] Among many available quantitative measurements from the image analysis, we selected three parameters for the assay:
(§4) 1) The mean total intensity of phagocytosis vesicles/cell—to measure phagocytosis. There are multiple parameters generated from the image analysis, including phagocytosis vesicle area, number, and various fluorescence intensity measurements. Comparing these parameters, the total fluorescence intensity of vesicles/cell is the most sensitive one and was chosen for quantifying phagocytosis.
(§5) 2) The total cell counts—to measure overall cell viability, which is affected by proliferation and cell death. We chose to take 4 images/well (with the 10× objective lens) that cover about 50% of the total area of a well in a 384-well plate to represent cell count of the well.
(§6) 3) The average nuclear intensity—to measure drug-induced apoptosis, with high signal indicating nuclear condescension (a sign of early apoptosis) and low signal indicating DNA degradation (a sign of later apoptosis, when activated caspases digest DNA).
(§7) A phenotypic high-content imaging assay with simultaneous measurements of phagocytosis, cell number, and nuclear intensity was used to assess both cellular pharmacology and cell health. Model cell lines BV2 (immortalized mouse microglia, a gift from Dr. Michelle Block's laboratory at IUSM) and HMC3 (immortalized human microglia, obtained from ATCC, CRL-3304) were used to provide adequate throughput. Cells were cultured in DMEM GlutaMax media (ThermoFisher) containing 10% FBS and Pen-Strep in a 37° C. 5% CO2 incubator, plated in Corning Falcon 384 well Optilux Black and clear bottom plates: 400 cells/45 μl/well (BV2 cells), 600 cells/45 μl/well (HMC3 cells) and 2000 cell/45 μl/well (primary cells), and treated with 10× serially diluted compounds (60 μM-3 nM) for 48 hrs at 37° C. […]

BV2 cells = assay: Microglial phagocytosis/cell health high-content assay, BV2 cells; format: cell-based; details: for IC50 / EC50: Mus musculus, BV-2; for IC50: read-out: cell count decrease IC50; for Ave. % Cell Count @ 60 uM BV2 cells / Ave. % Phagocytosis @ 60 uM BV2 cells: 48 hrs, compared to control; for phagocytosis increase against cell count decline: HMC3 and BV2 cells (Table 6, FIGS. 21, 22)
Description: as §1, §2, §3, §4, §5, §6, §7

[1] = Kinetic solubility in pH 7.4 phosphate buffer; format: physicochemical
Description: (§8) Physicochemical and ADME properties were determined using the following assays: microsomal stability intrinsic clearance (Clint) in mouse liver microsomal solution, MDCK permeability (Papp), protein binding (fu) in mouse plasma, and kinetic solubility in pH 7.4 phosphate buffer (Table 7).

PLCγ2-HiBit = target: T1, PLCγ2-HiBit (Homo sapiens, UniProt P16885); assay: Cellular thermal shift assay (SplitLuc CETSA), PLCγ2-HiBit in HMC3 cells; format: cell-based; details: for PLCγ2-HiBit %, percent luminescence at highest dose compared to control (DMSO): 100 μM
T1 construct: expressed in transfected cells; host or cells: HMC3 cells
T1 sequence (P16885 1-1265): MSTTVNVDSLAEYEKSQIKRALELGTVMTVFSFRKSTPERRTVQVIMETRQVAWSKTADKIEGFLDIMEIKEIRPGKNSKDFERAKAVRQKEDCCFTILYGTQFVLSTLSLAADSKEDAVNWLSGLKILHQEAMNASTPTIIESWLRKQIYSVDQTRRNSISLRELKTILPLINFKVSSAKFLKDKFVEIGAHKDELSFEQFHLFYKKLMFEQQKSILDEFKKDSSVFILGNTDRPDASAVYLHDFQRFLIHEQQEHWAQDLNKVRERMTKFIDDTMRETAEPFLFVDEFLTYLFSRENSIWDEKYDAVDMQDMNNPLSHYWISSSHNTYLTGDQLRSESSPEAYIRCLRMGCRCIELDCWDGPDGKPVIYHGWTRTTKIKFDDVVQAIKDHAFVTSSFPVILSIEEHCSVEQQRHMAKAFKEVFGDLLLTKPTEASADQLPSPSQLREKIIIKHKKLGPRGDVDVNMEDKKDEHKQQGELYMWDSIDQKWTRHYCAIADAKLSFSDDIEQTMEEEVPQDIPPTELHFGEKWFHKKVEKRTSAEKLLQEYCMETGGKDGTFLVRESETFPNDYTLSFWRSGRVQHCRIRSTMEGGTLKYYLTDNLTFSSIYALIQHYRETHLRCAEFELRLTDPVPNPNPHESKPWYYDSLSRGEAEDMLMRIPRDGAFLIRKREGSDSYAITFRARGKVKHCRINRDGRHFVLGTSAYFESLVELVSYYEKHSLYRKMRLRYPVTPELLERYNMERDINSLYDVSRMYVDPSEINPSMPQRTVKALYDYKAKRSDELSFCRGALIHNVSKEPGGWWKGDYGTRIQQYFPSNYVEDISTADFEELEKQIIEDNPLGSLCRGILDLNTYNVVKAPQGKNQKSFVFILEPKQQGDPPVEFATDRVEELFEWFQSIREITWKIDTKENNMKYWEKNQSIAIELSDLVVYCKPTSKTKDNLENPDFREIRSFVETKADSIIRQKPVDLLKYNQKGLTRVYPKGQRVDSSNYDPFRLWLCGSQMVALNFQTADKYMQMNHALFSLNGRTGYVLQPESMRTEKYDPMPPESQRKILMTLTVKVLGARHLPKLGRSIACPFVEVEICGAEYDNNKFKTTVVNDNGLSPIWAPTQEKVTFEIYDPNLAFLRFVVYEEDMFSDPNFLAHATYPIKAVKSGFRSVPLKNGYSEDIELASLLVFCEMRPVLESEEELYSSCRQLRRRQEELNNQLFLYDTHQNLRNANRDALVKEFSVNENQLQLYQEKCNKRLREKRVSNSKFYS
Source text: These compounds have been evaluated using a wide variety of assay classes namely target engagement utilizing cellular thermal shift assay (CETSA),^34 affinity selection mass spectrometry (ASMS),^35 biochemical activity employing the fluorogenic probe XY-69,^36 and cellular activity testing for phagocytosis. Cellular Thermal Shift Assays (CETSA) assess cellular target engagement by quantifying changes in protein thermal stability upon ligand binding to endogenous proteins in intact cells.^34 For SAR studies, a split Nano Luciferase (SplitLuc CETSA) version of the assay was utilized to provide sufficient throughput.^37,38 HMC3 cells were stably transfected with PLCγ2-HiBit to enable protein expression in a physiologically relevant cellular context. The thermal stability of this HiBit-labeled protein in intact cells was measured in the following two formats. In the initial screen, using 96-well plates, cells were treated with FBS analogs at a single concentration (100 μM) at 37° C. for 60 min and then exposed to a 3-minute isothermal heating step at 45.9° C. (experimentally determined Tm of PLCγ2-HiBit). Luminescence detection was then conducted with the Nano-Glo HiBit Lytic detection kit (Promega, Cat. N3040).^38 Compound treatment was performed in triplicate, and raw signals were normalized to the mean of the controls (in the same plate) as % of control. When the difference in compound-treated cells >control mean+3SD, the compound was considered positive and selected for further testing with dose-response CETSA. In the dose response CETSA, cells were treated with decreasing concentrations from 100 μM with 1:3 serial dilutions to generate an 8-point curve. An AC50 was calculated with the % of control data using a four-parameter logistic curve regression model, and the percent luminescence remaining at the highest concentration is also reported for the compounds when the difference from the DMSO control is greater than 3× the standard deviation (SD). Otherwise, an AC50 was not calculated.

MDCK = MDCK permeability; format: in vitro ADME; details: estimate of intestinal absorption
Description: as §8

HiBit only = assay: Cellular thermal shift assay (CETSA), HiBit only control; format: cell-based, human; details: for HiBit only %, percent luminescence at highest dose with HiBit only compared to control (DMSO): 100 μM; for HiBit only % @100 μM: Table 1
[2] = Homo sapiens, HMC3, 48 h, HMC3 cells, 48 hours treatment
[3] = Table 1, CETSA dose response, read-out: AC50
[4] = Table 5, 8-point dose response from 100 μM, HMC3 cells, 45.9° C., read-out: AC50, concentration that induced a half-maximum loss of luminesce compared to control

Molecule | PLCγ2-HiBit %, percent luminescence at highest dose compared to control (DMSO) (PLCγ2-HiBit) [%] | PLCy2-HiBit % @100 (PLCγ2-HiBit; Table 1) [%] | HiBit only %, percent luminescence at highest dose with HiBit only compared to control (DMSO) (HiBit only) [%] | HiBit only % @100 μM (HiBit only) [%] | Ave. % Cell Count @ 60 uM HMC3 cells (HMC3 cells) [%] | Ave. % Phagocytosis @ 60 uM HMC3 cells (HMC3 cells) [%] | Ave. % Cell Count @ 60 uM BV2 cells (BV2 cells) [%] | Ave. % Phagocytosis @ 60 uM BV2 cells (BV2 cells) [%] | AC50 (PLCγ2-HiBit; [3]) [µM] | AC50 (PLCγ2-HiBit; [4]) [µM] | phagocytosis increase against cell count decline (BV2 cells) | other results
CN1CCN(CCOc2cc(OC3CCOCC3)c3c(Nc4c(Cl)ccc5c4OCO5)ncnc3c2)CC1 [Saracatinib, reference compound] |  |  |  |  |  |  |  |  |  |  |  | concentrations showing cytotoxicity (HMC3 cells; HMC3 cells, 48 hours treatment): > 10 µM; EC50 (HMC3 cells; HMC3 cells, 48 hours treatment): 0.182 µM; EC50 (HMC3 cells; [2]): < 0.2 µM; concentrations showing cell count decreases (BV2 cells; BV2 cells, 48 hours treatment): > 1 µM; IC50 (BV2 cells; BV2 cells, 48 hours treatment): 0.833 µM; EC50 (BV2 cells; BV2 cells, 48 hours treatment, read-out: increased phagocytosis EC50): 0.266 µM
Cc1cc(C)c(S(=O)(=O)Nc2cccc(C(F)F)c2)c(C)c1 [Compound 7] | 78 | 78 | 104 | 104 | 6 | 0 | 2 | 0 |  |  |  | Kinetic solubility [1]: 41 to 60 µM; Papp, MDCK permeability (MDCK): 37.4 ×10−^6 cm/s
Lipopolysaccharides [LPS, reference compound] |  |  |  |  |  |  |  |  |  |  |  | response (phagocytosis, cell count, nuclear intensity) (HMC3 cells; HMC3 cells, 48 hr): did not respond to LPS treatment; changes in nuclear intensity (BV2 cells; BV2 cells, 48 hr): no nuclear intensity changes up to 10 μg/ml LPS; also recorded: no changes in nuclear intensity; inhibition of cell count IC50 (BV2 cells; BV2 cells, 48 hr): 0.122 µg/mL; stimulation of phagocytosis EC50 (BV2 cells; BV2 cells, 48 hr): 0.255 µg/mL
Cc1cccc(NS(=O)(=O)c2c(C)cc(C)cc2C)c1 [Compound 5] | 54 | 54 | 95 | 96 | 78 | 111 | 45 | 165 | > 100 | > 100 | the increase was paired with a sharp cell count decline | 
O=S(=O)(Nc1cccc(C(F)(F)F)c1)c1ccc(Cl)cc1Cl [Compound 9] | 32 | 32 | 38 | 38 | 16 | 281 | 9 | 581 | 71 | 71 | the increase was paired with a sharp cell count decline | 
Cc1cc(Br)ccc1S(=O)(=O)Nc1cccc(C(F)(F)F)c1 [Compound 10] | 17 | 17 | 40 | 40 | 11 | 93 | 1 | 434 | 57 | 57 | the increase was paired with a sharp cell count decline | 
CC[C@H](Nc1ncnc2[nH]cnc12)c1nc2cccc(F)c2c(=O)n1-c1ccccc1 [Idelalisib, reference compound] |  |  |  |  |  |  |  |  |  |  |  | IC50 (HMC3 cells; HMC3 cells, 48 hours treatment): 0.526 µM; IC50 (HMC3 cells; [2]): ~0.5 µM; effect on phagocytosis (BV2 cells; BV2 cells, 48 hours treatment): did not inhibit phagocytosis in BV2 cells, but increased phagocytosis in parallel with decreasing cell counts and increasing nuclear intensity; EC50 (BV2 cells; BV2 cells, 48 hours treatment, 60 μM the maximal dose, read-out: stimulation of phagocytosis EC50): > 60 µM; IC50 (BV2 cells; BV2 cells, 48 hours treatment): 22 µM; EC50 (BV2 cells; BV2 cells, 48 hours treatment, read-out: nuclear intensity increase EC50): 4.14 µM
